Test results as given in patent US5945401A, “Peptide analogues of the 65KD isoform of human glutamic acid decarboxylase and uses thereof” (priority 1995, dated 1999).

Experiments:
[1] = test system: T cells from transgenic NOD mice expressing the human DQβ1*0302 gene; test: Proliferation of T cells from transgenic NOD mice expressing human DQβ1*0302; assay type: cell-based; conditions: T cells from DQβ1*0302 transgenic NOD mice
Text: Type 1 diabetes is associated with the HLA DQβ1*0302 allele (Nepom and Erlich, Ann. Rev. Immunol. 9:493-525, 1991). Transgenic NOD mice expressing the human DQβ1*0302 gene were constructed. […] Thus, these peptides are recognized by T cells in the context of DQβ1*0302 and are additional peptides suitable for use in the present invention.

[2] = test system: T cells from Type 1 diabetic patients and healthy controls; test: T cell proliferation assay with GAD 65 peptides (epitope mapping in patients, controls, co-twins); assay type: cell-based, human; conditions: patients compared with controls
Procedure: FIG. 2 is a graph illustrating the T cell proliferative responses to peptides corresponding to various regions of GAD 65. Responses to peptides (5 μg/ml) in 5-7 Type 1 diabetic patients (solid bars) and 4-5 healthy controls (hatched bars) are expressed by the number of responders (y-axis). Background counts were normally between 600 and 3000 cpm, while positive wells had to exceed 1500 and 6000 cpm respective to background counts.
A major focus of research into autoimmunity is the identification of dominant epitopes on disease-associated auto-antigens recognized by autoreactive T cells. Immunodominant regions of the antigen GAD 65 have been identified in Type 1 diabetic patients (Lohmann et al., Lancet 343:1607-08, 1994; Atkinson et al., J Clin. Invest. 94:2125-2129, 1994). Within the subject invention, a detailed T cell epitope mapping of immunodominant regions in patients with Type 1 diabetes was performed. Two regions of GAD 65 were selected for decoding, representing the regions associated with the highest frequency of T cell responses in both Type 1 diabetics (amino acid residues 473-555 and 161-243) and control subjects (amino acid residues 161-243) (FIGS. 2 and 4). Nine diabetics who responded to region 473-555 were selected for further study of their response to 18 single peptides covering this region. […]

Molecule | proliferation of T cells [1] | recognition by T cells of Type 1 diabetic patients versus controls [2]
GAD 65 native protein: 65 kD isoform of human glutamic acid decarboxylase, native protein | stimulated to proliferate | 
region 161-243: region of GAD 65, residues 161-243, tested as overlapping peptides (peptide, UniProt Q05329 161-243, looked up, fragment, tested as overlapping peptides, region of GAD 65, residues 161-243, tested as overlapping peptides) MHCQTTLKYAIKTGHPRYFNQLSTGLDMVGLAADWLTSTANTNMFTYEIAPVFVLLEYVTLKKMREIIGWPGGSGDGIFSPGG |  | recognized by T cells from both normals and IDDM patients
